Data as given in patent publication US20220298510A1, “COMPOUNDS AND METHODS FOR INHIBITING CANCERS VIA REST INHIBITION” (Icahn School of Medicine at Mount Sinai, priority 2019, published 2022).

Tests used:
ATRX IFF NB cells = assay: Proliferation (Incucyte, percent confluence normalized to DMSO) of ATRX IFF NB cells; assay type: cell-based, human; conditions: proliferation IC50 curves, day 12 (FIG. 11a)
From the text: GAPDH used as a loading control. […] Percent confluence normalized to DMSO for each condition and plotted at day 12. Values normalized mean n±SD (n=3). Statistical significance assessed using student's unpaired t-test with each cell line compared to DMSO (* indicates p<0.05). […] Percent AV positive cells plotted, values are mean n±SD (n=3). Statistical significance assessed using student's unpaired t-test with each cell line compared to DMSO (* indicates p<0.05). (d) Tumor volume measurements of CHLA-90 cells subcutaneously injected into immunocompromised mice. Mice were treated with vehicle or UNC1999 at 300 mg/kg of body weight for 25 days, values mean n±SEM (n=9). Statistical significance assessed using student's unpaired t-test compared to vehicle (* indicates p<0.001). […]
Proliferation evaluated using the […] […] IC50 for each cell line calculated in Prism. […] Statistical significance assessed using student's unpaired t-test with each cell line compared to DMSO (* indicates p<0.05). […] Proliferation assessed in the same manner as (a). Statistical significance assessed using student's unpaired t-test with each cell line compared to DMSO (* indicates p<0.05). […] AV staining assessed in the same manner as (b). […] Proliferation assessed in the same manner as (a). […] AV staining assessed in the same manner as (b).
GAPDH used as a loading control. […] Proliferation evaluated using the Incucyte™ Life-Cell Imaging System. […]

CHLA-90 xenografts = CHLA-90 xenografts in immunocompromised mice; assay type: in vivo; conditions: 300 mg/kg of body weight, 25 days
From the text: GAPDH used as a loading control. […] Percent confluence normalized to DMSO for each condition and plotted at day 12. Values normalized mean n±SD (n=3). Statistical significance assessed using student's unpaired t-test with each cell line compared to DMSO (* indicates p<0.05). […] Percent AV positive cells plotted, values are mean n±SD (n=3). Statistical significance assessed using student's unpaired t-test with each cell line compared to DMSO (* indicates p<0.05). (d) Tumor volume measurements of CHLA-90 cells subcutaneously injected into immunocompromised mice. Mice were treated with vehicle or UNC1999 at 300 mg/kg of body weight for 25 days, values mean n±SEM (n=9). Statistical significance assessed using student's unpaired t-test compared to vehicle (* indicates p<0.001). (e) Tumor weight measurement from xenografts collected in (d), values mean n±SEM (n=9). Images of excised tumors underneath (* indicates p<0.001). (f) Immunoblots for H3K27me3 from acid extracted histones derived from vehicle and treated xenografts. H4 and histones used as loading controls.

SMILES	sensitivity of ATRX IFF NB cells compared to other NB subtypes (ATRX IFF NB cells)	tumor growth and volume compared to vehicle-treated tumors (CHLA-90 xenografts)
CCN(c1cc(-c2ccc(CN3CCOCC3)cc2)cc(C(=O)NCc2c(C)cc(C)[nH]c2=O)c1C)C1CCOCC1 [EPZ-6438, Tazemetostat]	5-10 fold	–
CCCc1cc(C)[nH]c(=O)c1CNC(=O)c1cc(-c2ccc(N3CCN(C(C)C)CC3)nc2)cc2c1cnn2C(C)C [UNC1999]	–	significant reduction
